Experimental findings from patent US11033577B2, “Polymer conjugate of hexa-coordinated platinum complex” (priority 2015, dated 2021) are described below.

The data set in a line: Body weight of mice in Antitumor Test 2. Type of data set: in vivo. As to conditions: 18 mg/kg once, caudal vein. Here is the method:
Human stomach cancer 4-1ST was collected subcutaneously from a nude mouse and was cut into blocks each measuring about 3 mm on each side. The tumor blocks thus obtained were transplanted subcutaneously on the dorsal side of nude mice using a trocar. On the 17th day after transplantation, where the average tumor volume had reached about 100 to 200 mm^3, various drugs were administered through the caudal vein. The use and dose (in terms of drug) of the various administered drugs are as follows. In regard to the Example 11 compound, the compound was dissolved in a 5% glucose injectable solution, and the solution was administered once at a dose of 15 mg/kg or 7.5 mg/kg. In regard to the Example 12 compound, the compound was dissolved in a 5% glucose injectable solution, and the solution was administered once at a dose of 30 mg/kg or 15 mg/kg. As a control drug, l-OHP was administered once at a dose of 18 mg/kg, and cisplatin was administered once at a dose of 10 mg/kg. Regarding the amounts of administration of l-OHP and cisplatin and the high amounts of administration of the various Example compounds, the maximum tolerable doses (MTD doses) were employed for all of the compounds. After the administration, the major axis (L) and the minor axis (W) of the tumor were measured over time using calipers, and the tumor volume (L×W×W×0.5) was calculated. The test was performed by employing four animals per group for all of a non-administered group as well as various drug-administered groups. During the period from the initiation of administration to the 21st day after administration, the relative tumor volume (T/C (%)) of each drug-administered group based on the relative tumor volume of a non-drug-administered group as 100 was calculated by the following formula as an index for the antitumor effect. T/C(%)=Relative tumor volume of administered group/relative tumor volume of non-administered group×100 Formula: […]
After the administration, the body weights of the mice were measured over time. During the period from the initiation of administration to the 21st day after administration, the changes in the relative body weight based on the body weight on the day of initiation of administration as 1 are presented in Table 5.

Consider `O=C1[O][Pt]2([NH][C@@H]3CCCC[C@H]3[NH]2)[O]C1=O` [l-OHP, oxaliplatin], for which the “Relative body weight in numbers of days after administration” value turned out to be 1.00 (day 0); 0.78 (day 4); 0.83 (day 7); 0.93 (day 11); 1.03 (day 14); 1.09 (day 18). In addition, the “Relative body weight in numbers of days after administration” value (day 21) is on record as 1.05.
